Data: PubChem BioAssay (NCI)
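96-well plates; 48 h exposure; 5 concentrations. Endpoints by linear interpolation between flanking doses. Not reached: highest tested concentration assigned. GI50: concentration for 50% inhibition of growth. TGI: total growth inhibition.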

Legend:
Experiment in all cases: inhibition of tumour cell growth, NCI panel, 48 h
SF-268 CNS = system: SF-268 CNS
EKVX NSCLC = system: EKVX NSCLC
CAKI-1 renal = system: CAKI-1 renal
NCI-H522 lung = system: NCI-H522 lung
K-562 leukemia = system: K-562 leukemia
TK-10 renal = system: TK-10 renal
A549 NSCLC = system: A549 NSCLC
SK-MEL-28 melanoma = system: SK-MEL-28 melanoma
DU-145 prostate = system: DU-145 prostate
HOP-92 NSCLC = system: HOP-92 NSCLC

COc1cc(OC)cc(-c2n/c(=C\c3c(O)[nH]c4ccc(Cl)cc34)cc3c2=Nc2ccccc2-3)c1
GI50 (SF-268 CNS): 3.35 µM | TGI (SF-268 CNS): 11.4 µM | GI50 (EKVX NSCLC): 13.6 µM | TGI (EKVX NSCLC): 37.8 µM | GI50 (CAKI-1 renal): 12.9 µM | TGI (CAKI-1 renal): 30.5 µM | GI50 (NCI-H522 lung): 3.09 µM | TGI (NCI-H522 lung): 10.5 µM | GI50 (K-562 leukemia): 2.72 µM | TGI (K-562 leukemia): 6.29 µM | GI50 (TK-10 renal): 3.79 µM | TGI (TK-10 renal): 8.96 µM | GI50 (A549 NSCLC): 3.21 µM | TGI (A549 NSCLC): 11.1 µM | GI50 (SK-MEL-28 melanoma): 29.3 µM | TGI (SK-MEL-28 melanoma): > 100 µM | GI50 (DU-145 prostate): 2.91 µM | TGI (DU-145 prostate): 6.88 µM

C/C(=C\Cc1cc(O)ccc1O)CCc1c(C)c(O)c(O)c(C=O)c1C
TGI (SF-268 CNS): 68.5 µM | TGI (EKVX NSCLC): > 100 µM | TGI (CAKI-1 renal): 85.6 µM | TGI (NCI-H522 lung): 21.4 µM | TGI (K-562 leukemia): > 100 µM | TGI (TK-10 renal): > 100 µM | TGI (A549 NSCLC): 92.8 µM | TGI (HOP-92 NSCLC): 34.7 µM | TGI (SK-MEL-28 melanoma): 48.5 µM

COc1cc(/C=N\NC(=O)C[N+](C)(C)C)cc(OC)c1OC
TGI (SF-268 CNS): > 10 µM | TGI (CAKI-1 renal): > 10 µM | TGI (NCI-H522 lung): > 10 µM | TGI (K-562 leukemia): > 10 µM | TGI (TK-10 renal): > 10 µM | TGI (A549 NSCLC): > 10 µM | TGI (HOP-92 NSCLC): > 10 µM | TGI (SK-MEL-28 melanoma): > 10 µM | TGI (DU-145 prostate): > 10 µM

C[C@@H]1CC[C@@H](C)[C@](C)(CCc2ccoc2)C/C=C\C=C/1C(=O)O
TGI (EKVX NSCLC): > 50 µM | TGI (CAKI-1 renal): > 50 µM | TGI (K-562 leukemia): > 50 µM | TGI (TK-10 renal): > 50 µM | TGI (A549 NSCLC): > 50 µM | TGI (HOP-92 NSCLC): > 50 µM | TGI (SK-MEL-28 melanoma): > 50 µM

CC1C2CC(C/C2=N/O)C1(C)C (stereo not given)
TGI (SF-268 CNS): > 100 µM | TGI (EKVX NSCLC): > 100 µM | TGI (CAKI-1 renal): > 100 µM | TGI (NCI-H522 lung): > 100 µM | TGI (K-562 leukemia): > 100 µM | TGI (TK-10 renal): > 100 µM | TGI (A549 NSCLC): > 100 µM | TGI (HOP-92 NSCLC): > 100 µM | TGI (SK-MEL-28 melanoma): > 100 µM | TGI (DU-145 prostate): > 100 µM

CC(=O)CC(C)(C)NC(=O)[C@@]1(O)CC[C@H]2[C@@H]3CCC4=CC(=O)CC[C@@H]4[C@H]3CC[C@@]21C
TGI (SF-268 CNS): > 100 µM | TGI (EKVX NSCLC): > 100 µM | TGI (NCI-H522 lung): > 100 µM | TGI (K-562 leukemia): > 100 µM | TGI (TK-10 renal): > 100 µM | TGI (A549 NSCLC): > 100 µM | TGI (HOP-92 NSCLC): > 100 µM | TGI (SK-MEL-28 melanoma): > 100 µM | TGI (DU-145 prostate): > 100 µM

Cc1cc(C)c2c(=N)c3ccccc3n(CCCCCCO)c2n1
TGI (SF-268 CNS): 13.9 µM | TGI (EKVX NSCLC): 6.33 µM | TGI (CAKI-1 renal): 8.31 µM | TGI (NCI-H522 lung): 3.14 µM | TGI (TK-10 renal): 17.9 µM | TGI (A549 NSCLC): 17.7 µM | TGI (HOP-92 NSCLC): 16 µM | TGI (SK-MEL-28 melanoma): 33 µM | TGI (DU-145 prostate): 25.3 µM

O=C(N/N=C/c1ccc(Cl)cc1)c1cc(I)cc(I)c1O
TGI (EKVX NSCLC): > 100 µM | TGI (CAKI-1 renal): > 100 µM | TGI (K-562 leukemia): > 100 µM | TGI (TK-10 renal): > 100 µM | TGI (A549 NSCLC): > 100 µM | TGI (HOP-92 NSCLC): > 100 µM | TGI (SK-MEL-28 melanoma): > 100 µM | TGI (DU-145 prostate): > 100 µM

O=C1CCC2(O)C3Cc4ccc(Oc5nnnn5-c5ccccc5)c5c4C2(CCN3CC2CC2)C1O5 (stereo not given)
TGI (SF-268 CNS): > 100 µM | TGI (EKVX NSCLC): > 100 µM | TGI (CAKI-1 renal): > 100 µM | TGI (NCI-H522 lung): 61.6 µM | TGI (K-562 leukemia): > 100 µM | TGI (TK-10 renal): > 100 µM | TGI (A549 NSCLC): > 100 µM | TGI (HOP-92 NSCLC): > 100 µM | TGI (SK-MEL-28 melanoma): 30.8 µM | TGI (DU-145 prostate): > 100 µM

C/C=C/[C@H]1O[C@@](O)([C@@H](C)[C@H](O)[C@H](C)[C@H]2OC(=O)/C(OC)=C/C(C)=C/[C@@H](C)[C@@H](O)[C@@H](CC)[C@@H](O)[C@H](C)C/C(C)=C/C=C/[C@@H]2OC)C[C@H](OC2CC(O)C(OC(N)=O)C(C)O2)[C@@H]1C (stereo not given in full)
TGI (SF-268 CNS): 25 µM | TGI (EKVX NSCLC): 20.5 µM | TGI (CAKI-1 renal): 14.4 µM | TGI (NCI-H522 lung): 7.39 µM | TGI (K-562 leukemia): 0.772 µM | TGI (TK-10 renal): 31.7 µM | TGI (A549 NSCLC): 17.7 µM | TGI (HOP-92 NSCLC): 2.4 µM | TGI (SK-MEL-28 melanoma): 20.4 µM | TGI (DU-145 prostate): 21.6 µM

CCNc1ncnc2c1nnn2CC
TGI (EKVX NSCLC): > 100 µM | TGI (CAKI-1 renal): > 100 µM | TGI (NCI-H522 lung): > 100 µM | TGI (K-562 leukemia): > 100 µM | TGI (TK-10 renal): > 100 µM | TGI (A549 NSCLC): > 100 µM | TGI (HOP-92 NSCLC): > 100 µM | TGI (SK-MEL-28 melanoma): > 100 µM | TGI (DU-145 prostate): > 100 µM

CCCCCn1c(=O)c2c(=O)[nH][nH]c2c2ccccc21
TGI (SF-268 CNS): > 100 µM | TGI (CAKI-1 renal): > 100 µM | TGI (NCI-H522 lung): > 100 µM | TGI (K-562 leukemia): > 100 µM | TGI (TK-10 renal): > 100 µM | TGI (A549 NSCLC): > 100 µM | TGI (HOP-92 NSCLC): > 100 µM | TGI (SK-MEL-28 melanoma): > 100 µM | TGI (DU-145 prostate): > 100 µM

C=C(Br)CNCC(=C)Br
TGI (SF-268 CNS): > 100 µM | TGI (EKVX NSCLC): > 100 µM | TGI (CAKI-1 renal): > 100 µM | TGI (NCI-H522 lung): > 100 µM | TGI (K-562 leukemia): > 100 µM | TGI (TK-10 renal): > 100 µM | TGI (A549 NSCLC): > 100 µM | TGI (SK-MEL-28 melanoma): > 100 µM | TGI (DU-145 prostate): > 100 µM

CC(=O)c1ccc(N2CCN(C3=CC(=O)c4c(O)ccc(O)c4C3=O)CC2)cc1
TGI (SF-268 CNS): > 100 µM | TGI (EKVX NSCLC): > 100 µM | TGI (CAKI-1 renal): > 100 µM | TGI (K-562 leukemia): > 100 µM | TGI (TK-10 renal): > 100 µM | TGI (A549 NSCLC): > 100 µM | TGI (HOP-92 NSCLC): 79.2 µM | TGI (SK-MEL-28 melanoma): > 100 µM | TGI (DU-145 prostate): > 100 µM

O/N=C1/C2CC3CC1(c1ccccc1)CC(/C3=N/O)/C2=N\O (stereo not given)
TGI (EKVX NSCLC): > 100 µM | TGI (CAKI-1 renal): > 100 µM | TGI (NCI-H522 lung): > 100 µM | TGI (K-562 leukemia): > 100 µM | TGI (TK-10 renal): > 100 µM | TGI (A549 NSCLC): > 100 µM | TGI (SK-MEL-28 melanoma): > 100 µM | TGI (DU-145 prostate): > 100 µM

Cc1ccnc(NC(=S)Nc2cccc(Cl)c2)c1
TGI (SF-268 CNS): > 100 µM | TGI (EKVX NSCLC): > 100 µM | TGI (CAKI-1 renal): > 100 µM | TGI (NCI-H522 lung): 9.85 µM | TGI (K-562 leukemia): > 100 µM | TGI (TK-10 renal): > 100 µM | TGI (A549 NSCLC): > 100 µM | TGI (SK-MEL-28 melanoma): > 100 µM | TGI (DU-145 prostate): > 100 µM

O/N=C1\CCc2nonc2\C1=N/Nc1ccccc1
TGI (SF-268 CNS): > 100 µM | TGI (EKVX NSCLC): > 100 µM | TGI (CAKI-1 renal): > 100 µM | TGI (K-562 leukemia): > 100 µM | TGI (TK-10 renal): > 100 µM | TGI (A549 NSCLC): > 100 µM | TGI (HOP-92 NSCLC): > 100 µM | TGI (SK-MEL-28 melanoma): > 100 µM | TGI (DU-145 prostate): > 100 µM

CC(C)=Nn1cnc(C(=N)C#N)c1N
TGI (SF-268 CNS): > 100 µM | TGI (EKVX NSCLC): > 100 µM | TGI (CAKI-1 renal): > 100 µM | TGI (NCI-H522 lung): > 100 µM | TGI (K-562 leukemia): > 100 µM | TGI (TK-10 renal): > 100 µM | TGI (A549 NSCLC): > 100 µM | TGI (SK-MEL-28 melanoma): > 100 µM | TGI (DU-145 prostate): > 100 µM

CC1=NN(C(=O)c2ccc(Cl)cc2)C(=O)/C1=C/c1ccc(Cl)cc1
TGI (SF-268 CNS): > 100 µM | TGI (EKVX NSCLC): > 100 µM | TGI (CAKI-1 renal): > 100 µM | TGI (NCI-H522 lung): > 100 µM | TGI (K-562 leukemia): > 100 µM | TGI (TK-10 renal): > 100 µM | TGI (A549 NSCLC): > 100 µM | TGI (HOP-92 NSCLC): > 100 µM | TGI (SK-MEL-28 melanoma): > 100 µM

CCC(=O)NC(OCC1(CC)COC1)(C(F)(F)F)C(F)(F)F
TGI (SF-268 CNS): > 100 µM | TGI (EKVX NSCLC): > 100 µM | TGI (NCI-H522 lung): > 100 µM | TGI (K-562 leukemia): > 100 µM | TGI (TK-10 renal): > 100 µM | TGI (SK-MEL-28 melanoma): > 100 µM | TGI (DU-145 prostate): > 100 µM

COP(=O)(OC)C(NC=O)P(=O)(OC)OC
TGI (SF-268 CNS): > 100 µM | TGI (EKVX NSCLC): > 100 µM | TGI (CAKI-1 renal): > 100 µM | TGI (K-562 leukemia): > 100 µM | TGI (TK-10 renal): > 100 µM | TGI (A549 NSCLC): > 100 µM | TGI (HOP-92 NSCLC): > 100 µM | TGI (SK-MEL-28 melanoma): > 100 µM | TGI (DU-145 prostate): > 100 µM
